What all share (type): cell-based
One series deals with BT-549. Nature of the series: Live cell number under carboplatin in BT-549 cells. To be noted: 10 μM AP-18; carboplatin 72 h; BT-549, very low TRPA1. The protocol:
(§1) For the measurements of live cell number and cell death under treatment with H2O2, diamide, or chemotherapies, cells were cultured on 96-well plates in the presence or absence of these drugs for indicated times and stained with 5 μM bisBenzimide H 33342 trihydrochloride (Hoechst; Sigma) and 5 μM propidium iodide (PI; Sigma) for 1 h at 37° C. Hoechst- and/or PI-positive cells were counted using a laser scanning cytometer, Acumen Cellista (TTPLabTech). Apoptotic cells induced by H2O2 treatment were measured by staining with Annexin V-Alexa Fluor® 488 conjugate (Life Technologies) and PI in Ca^2+-containing solution (10 mM HEPES pH 7.4, 140 mM NaCl; 2.5 mM CaCl2), followed by flow cytometric measurement of fluorescence using a FACSCalibur. Flow cytometry plots are representative of three independent experiments. […] Viable cells were counted using the Countless Automated Cell Counters (Thermo Fisher Scientific). […] Hoechst- and/or PI-positive areas were measured using Acumen Cellista. Apoptotic cells induced by detachment were measured by staining with 5 μM Hoechst and 5 μM of CellEvent™ Caspase-3/7 Green Detection Reagent (Thermo Fisher Scientific) for 1 h at 37° C. without enzymatic dissociation of cell clumps. Hoechst- and/or CellEvent™ Caspase-3/7 Green Detection Reagent-positive areas were measured using Acumen Cellista. […]

For another series, the system named is HCC1569 spheroids. Nature of the series: [H2O2]i by Hyper-2 in HCC1569 spheroids. The conditions noted are these: AP-18, 300 nM A-967079 or 5 mM NAC. As for the experimental part: (§2) For the measurement of [H2O2]i levels in MCF-10A acini and HCC1569 spheroids, cells were transduced with a lentiviral vector encoding Hyper-2 or Hyper-2 (C199S). The Hyper-2 fluorescence was measured at 37° C. in HEPES-buffered saline (HBS) containing the following (in mM): 150 NaCl, 6 KCl, 1.2 MgSO4, 2 CaCl2, 11.5 glucose, and 25 HEPES (pH adjusted to 7.4 with NaOH). Fluorescence images of the cells were acquired through the Eclipse Ti-E microscope (Nikon) with ORCA-R2 cooled CCD camera (Hamamatsu Photonics) and analyzed with Metafluor image acquisition software (Molecular Devices). The 488:405-nm ratio images were obtained on a pixel-by-pixel basis. 3D images are shown as one section from midstructure. For the measurement of [H2O2]i levels in MCF-10A cells cultured in suspension, cell clumps were dissociated with trypsin and stained with 10 μM peroxy green-1 for 30 min at 37° C. Cells were then subjected to flow cytometric analysis (FACSCalibur; BD Biosciences). ROS levels determined by flow cytometry are reported as mean fluorescence intensity expressed in arbitrary units. Hyper-2 ratio images are representative from two independent experiments and averaged Hyper-2 ratio represents mean±SD from the sum of two independent experiments.

In the next series the test system is NSCLC cells. Nature of the series: H2O2- and carboplatin-induced cytotoxicity in NSCLC cells. The conditions noted are these: TRPA1 expression-dependent. The protocol: as §1
The subject of another series is HCC1500. Nature of the series: Live cell number under carboplatin in HCC1500 cells. The conditions noted are these: 10 μM AP-18; carboplatin 72 h; HCC1500, very low TRPA1. As for the experimental part: as §1
A further series has as its system MCF-10A acini. Nature of the series: [H2O2]i by Hyper-2 in MCF-10A 3D acini. As for the experimental part:
as §2

For series [1], the target named is T1, TRPA1 (Homo sapiens, UniProt O75762).
T1 construct: endogenous in cells; host or cells: HCC1569 breast cancer cells (2D culture or 3D spheroids; shGFP or shTRPA1 transduced)
T1 sequence (O75762 whole entry): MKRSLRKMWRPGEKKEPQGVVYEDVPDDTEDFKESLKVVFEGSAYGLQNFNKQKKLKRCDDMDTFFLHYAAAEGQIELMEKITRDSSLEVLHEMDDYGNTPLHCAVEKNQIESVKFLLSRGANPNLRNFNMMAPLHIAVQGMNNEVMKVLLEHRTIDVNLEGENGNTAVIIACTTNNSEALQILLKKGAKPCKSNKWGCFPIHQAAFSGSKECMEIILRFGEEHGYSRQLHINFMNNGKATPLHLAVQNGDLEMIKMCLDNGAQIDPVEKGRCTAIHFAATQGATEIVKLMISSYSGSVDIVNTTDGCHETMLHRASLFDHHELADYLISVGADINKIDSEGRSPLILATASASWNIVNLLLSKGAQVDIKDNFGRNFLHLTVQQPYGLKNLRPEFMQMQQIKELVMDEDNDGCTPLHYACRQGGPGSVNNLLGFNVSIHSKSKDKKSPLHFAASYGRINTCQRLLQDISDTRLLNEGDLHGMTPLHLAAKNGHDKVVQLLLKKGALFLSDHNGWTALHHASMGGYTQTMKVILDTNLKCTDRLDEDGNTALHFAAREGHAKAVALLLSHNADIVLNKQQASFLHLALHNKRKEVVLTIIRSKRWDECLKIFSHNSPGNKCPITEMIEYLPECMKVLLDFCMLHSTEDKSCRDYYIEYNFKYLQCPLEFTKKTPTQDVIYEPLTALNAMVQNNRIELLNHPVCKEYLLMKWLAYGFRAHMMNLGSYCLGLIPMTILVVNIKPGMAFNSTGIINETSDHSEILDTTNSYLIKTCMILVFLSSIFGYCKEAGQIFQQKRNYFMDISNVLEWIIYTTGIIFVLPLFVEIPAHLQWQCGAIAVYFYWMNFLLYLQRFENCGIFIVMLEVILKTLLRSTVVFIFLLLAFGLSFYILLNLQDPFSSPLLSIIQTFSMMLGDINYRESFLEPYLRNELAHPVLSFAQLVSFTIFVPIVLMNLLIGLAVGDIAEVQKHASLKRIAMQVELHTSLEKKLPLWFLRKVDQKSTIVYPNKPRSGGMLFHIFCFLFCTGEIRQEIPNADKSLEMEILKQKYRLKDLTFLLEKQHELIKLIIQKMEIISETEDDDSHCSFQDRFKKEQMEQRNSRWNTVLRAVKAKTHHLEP
Nature of the series: AITC-evoked [Ca2+]i rises in TRPA1-enriched NSCLC cells. To be noted: 10 μM AP-18, 30 μM AITC. As for the experimental part:
(§3) For the measurement of [Ca^2+]i levels in cells cultured in 2D or 3D (in Matrigel), cells were stained with 3.5 μM fura-2-AM (Life Technology) in the presence of 2.5 mM probenecid (Sigma) and 0.02% Pluronic F-127 (Sigma) for 45 min at 37° C. The fura-2 fluorescence was measured in HBS solution containing 1.25 mM probenecid at 37° C. Fluorescence images of the cells were acquired through the Eclipse Ti-E microscope with ORCA-R2 cooled CCD camera and analyzed with Metafluor. The 340:380-nm ratio images were obtained on a pixel-by-pixel basis and were converted to Ca^2+ concentrations by in vivo calibration using 5 μM ionomycin as described previously (Nishida et al., Biochem. Biophys. Res. Commun., 262:350-354, 1999). 3D images are shown as one section from midstructure. For the measurement of [Ca^2+]i levels in cells cultured in suspension, cell clumps were dissociated with trypsin and [Ca^2+]i levels were determined by using Fluo-4 NW Calcium Assay Kit (Molecular Probes). Cells were stained with Fluo-4 according to the manufacturer's instructions and subjected to flow cytometric analysis (FACSCalibur) using HBS as sheath fluid. [Ca^2+]i levels determined by flow cytometry are reported as mean fluorescence intensity expressed in arbitrary units. […]

The target of series [2] is T1, TRPA1. Nature of the series: AITC-evoked [Ca2+]i rises in TRPA1-enriched MPNST cells. The conditions noted are these: 10 μM AP-18, 30 μM AITC. The protocol: as §3
For another series, the system named is HCC1569 cells. Nature of the series: Live cell number and cell death under carboplatin in HCC1569 cells. The conditions noted are these: carboplatin 72 h. As for the experimental part:
For the measurements of live cell number and cell death under treatment with H2O2, diamide, or chemotherapies, cells were cultured on 96-well plates in the presence or absence of these drugs for indicated times and stained with 5 μM bisBenzimide H 33342 trihydrochloride (Hoechst; Sigma) and 5 μM propidium iodide (PI; Sigma) for 1 h at 37° C. Hoechst- and/or PI-positive cells were counted using a laser scanning cytometer, Acumen Cellista (TTPLabTech). Apoptotic cells induced by H2O2 treatment were measured by staining with Annexin V-Alexa Fluor® 488 conjugate (Life Technologies) and PI in Ca^2+-containing solution (10 mM HEPES pH 7.4, 140 mM NaCl; 2.5 mM CaCl2), followed by flow cytometric measurement of fluorescence using a FACSCalibur. Flow cytometry plots are representative of three independent experiments. For the counting of viable cells cultured in suspension, cell clumps were dissociated with trypsin and stained with trypan blue. Viable cells were counted using the Countless Automated Cell Counters (Thermo Fisher Scientific). For the measurement of percentage of dead cells cultured in suspension, cells were cultured on poly HEMA-coated 96-well plates and stained with 5 μM Hoechst and 5 μM PI for 1 h at 37° C. without enzymatic dissociation of cell clumps. Hoechst- and/or PI-positive areas were measured using Acumen Cellista. Apoptotic cells induced by detachment were measured by staining with 5 μM Hoechst and 5 μM of CellEvent™ Caspase-3/7 Green Detection Reagent (Thermo Fisher Scientific) for 1 h at 37° C. without enzymatic dissociation of cell clumps. Hoechst- and/or CellEvent™ Caspase-3/7 Green Detection Reagent-positive areas were measured using Acumen Cellista. For the cell cycle analysis, enzymatically dissociated cells were fixed with ice-cold 70% EtOH for at least 30 min at 4° C., washed three times with PBS at 4° C., resuspended in PBS, treated with 100 μg/ml RNase A (Sigma), and stained with 50 μg/ml PI. The stained samples were subjected to flow cytometric analysis (FACSCalibur).

With AP-18, the sensitization to carboplatin entry in the series on BT-549 and in the series on HCC1500 was “minimal to no effect” throughout. In addition, the “increase in [H2O2]i (Hyper-2) in inner region of spheroids” value in the series on HCC1569 spheroids is on record as “unaffected”. Further, the “sensitization to carboplatin-induced cytotoxicity” value in the series with NSCLC cells (10 μM AP-18, carboplatin 72 h) is listed as “sensitized”. In addition, the “sensitization to H2O2-induced cytotoxicity” value in the series on NSCLC cells is recorded as “sensitized”. Besides, the “increase in [H2O2]i (Hyper-2) in inner ECM-deprived cells” value with MCF-10A acini is “unaffected”. Moreover, the “inhibition of AITC-induced [Ca2+]i rises” value against TRPA1 [1] and at TRPA1 [2] was “abolished” in each case. The “cell death in response to carboplatin treatment” value with HCC1569 cells is given as “enhanced”. In the series on HCC1569 cells, the “live cell number in response to carboplatin treatment” value is “substantially suppressed”.

Source of the values: patent publication US11241442B2, “Methods of use for TRP channel antagonist-based combination cancer therapies” (President and Fellows of Harvard College, priority 2017, dated 2022).
